This test relates to Maize. Nature of the test: Preemergence phytotoxic action of the herbicide of formula I and of mixtures of herbicide and safener of formula II on maize. It counts as in vivo. The conditions noted are these: no safener, 22 days. The source says:
Preemergence Phytoxic Action of the Herbicide of Formula I and of the Mixtures of Herbicide and Safener of Formula II on Maize
Maize is sown in standard soil in plastic pots. Immediately after sowing, the pots are sprayed with an aqueous suspension of the test substances (500 l of water/ha) prepared from one of the above formulations 1 to 8. The concentration of herbicide of formula I is 4000, 3000 and 2000 g/ha. The safener No. 1.006 is applied in a ratio to the herbicide of 1:18, 1:24 and 1:30. The test plants are afterwards cultivated in a greenhouse under optimum conditions. The phytotoxic action of the herbicide on the maize (percentage phytotoxicity) is evaluated after a test duration of 22 days.

`CCc1cccc(C)c1N(C(=O)CCl)[C@@H](C)COC` [formula I, aRS,1′S(−)N-(1′-methyl-2′-methoxyethyl)-N-chloracetyl-2-ethyl-6-methylaniline]: the “% Phytotoxicity” value (herbicide of formula I 4000 g/ha, greenhouse) was found to be 65%; the “% Phytotoxicity” value (series b), herbicide of formula I 2000 g/ha (so in the source)) stood at 55%; the “% Phytotoxicity” value (series c), herbicide of formula I 2000 g/ha) is given as 25%.
